Results taken from patent US6325989A, “Form of dipeptidylpeptidase IV (CD26) found in human serum” (Dana-Farber Cancer Institute, Inc., priority 1995, dated 2001).
Residues, ends and D or L forms follow the SMILES beside them. *: point of attachment. pNA = O=[N+]([O-])c1ccc(N*)cc1

Columns and labels:
[1] = system: soluble serum DPPIV/CD26, 175 kDa form, purified from normal human serum; assay: DPPIV activity assay (hydrolysis of Gly-Pro-pNA; Michaelis-Menten kinetics and inhibition); type: biochemical
Method: (§1) The DPPIV enzyme activities of the rsCD26 and serum DPPIV were analyzed by Michaelis-Menten kinetics by assessing kinetics of hydrolysis of substrate at different concentrations. […] To further exclude the possibility that we had purified irrelevant aminopeptidases which, working in concert or by sequential hydrolysis, could release the pNA chromophore from substrate, we tested a number of substrates which could be hydrolyzed by non-DPPIV aminopeptidases. One candidate for sequential hydrolysis is aminopeptidase M (3.4.11.2), but no hydrolysis of Ala-pNA, Arg-pNA or Leu-pNA was observed and activity by aminopolypeptidase (3.4.11.14) may be similarly excluded. The substrate succinyl-Gly-Pro-pNA was also not hydrolyzed. The only substrate apart from the dipeptide chromatogen Gly-Pro-pNA which could be hydrolyzed was Val-Ala-pNA, which was cleaved by both the serum DPPIV and rsCD26 (relative to rate of hydrolysis of Gly-Pro-pNA, hydrolysis of Val-Ala-pNA was 0.098 and 0.079, for rsCD26 and serum DPPIV, respectively). Although DPPIV primarily hydrolyses dipeptides with a proline in the penultimate position, it is well documented that alanine in the penultimate position may also render a dipeptide sequence susceptible to cleavage by DPPIV (8). […]
The primary substrate used for determining DPPIV activity in all assays was Gly-Pro-p-nitroanilide (Gly-Pro-pNA; Sigma), which is hydrolyzed by DPPIV to release pNA absorbing strongly at 405 nm. […] Inhibition of the hydrolysis of Gly-Pro-pNA was determined in the presence of the specific DPPIV inhibitor Diprotin A (Bachem, King of Prussia, Pa.). […] The pH optimum was determined substituting phosphate buffer (100 mM, pH4.5-pH9) in place of standard incubation buffer.
Serum DPPIV was prepared by isolating from 100 ml of pooled normal human male AB serum the fraction of protein precipitated by 50-70% saturated ammonium sulfate. […] The DPPIV activity was eluted by a 0-0.5M NaCl gradient in equilibration buffer and all DPPIV activity was found in the 10 mM-50 mM NaCl eluate (determined by conductance). […]

[2] = molecular target: T1, recombinant soluble CD26 (rsCD26), full extracellular domain of human T cell membrane CD26/DPPIV, 105 kDa form, from transfected CHO cells (Homo sapiens, UniProt P27487); assay: as above; type: biochemical
T1 construct: The full extracellular domain of T cell membrane-expressed CD26 (rsCD26); made in house; host or cells: transfected CHO cells
T1 sequence (P27487 29-766 limits assumed): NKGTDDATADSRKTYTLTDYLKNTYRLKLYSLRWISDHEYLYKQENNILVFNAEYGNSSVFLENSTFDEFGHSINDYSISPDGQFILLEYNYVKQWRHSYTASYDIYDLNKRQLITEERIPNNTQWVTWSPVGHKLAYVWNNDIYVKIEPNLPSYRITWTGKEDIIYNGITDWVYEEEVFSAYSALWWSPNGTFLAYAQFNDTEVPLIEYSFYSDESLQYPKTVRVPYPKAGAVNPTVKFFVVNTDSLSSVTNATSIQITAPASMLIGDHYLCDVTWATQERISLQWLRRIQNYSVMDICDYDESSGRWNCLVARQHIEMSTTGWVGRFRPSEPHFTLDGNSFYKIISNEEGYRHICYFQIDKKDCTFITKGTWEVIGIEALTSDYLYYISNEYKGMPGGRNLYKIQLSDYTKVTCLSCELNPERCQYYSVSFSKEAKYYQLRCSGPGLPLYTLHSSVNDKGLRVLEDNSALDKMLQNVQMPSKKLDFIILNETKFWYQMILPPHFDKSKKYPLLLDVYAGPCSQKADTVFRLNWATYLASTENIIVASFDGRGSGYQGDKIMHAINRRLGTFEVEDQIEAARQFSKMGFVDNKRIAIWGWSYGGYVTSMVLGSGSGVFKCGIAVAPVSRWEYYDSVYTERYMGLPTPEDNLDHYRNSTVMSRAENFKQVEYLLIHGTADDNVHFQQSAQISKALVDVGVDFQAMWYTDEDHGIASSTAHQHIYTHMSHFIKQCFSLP
Method: as §1, with “respectively).” for “respectively). Although DPPIV primarily hydrolyses dipeptides with a proline in the penultimate position, it is well documented that alanine in the penultimate position may also render a dipeptide sequence susceptible to cleavage by DPPIV (8).”
The primary substrate used for determining DPPIV activity in all assays was Gly-Pro-p-nitroanilide (Gly-Pro-pNA; Sigma), which is hydrolyzed by DPPIV to release pNA absorbing strongly at 405 nm. […] Inhibition of the hydrolysis of Gly-Pro-pNA was determined in the presence of the specific DPPIV inhibitor Diprotin A (Bachem, King of Prussia, Pa.). […]

[3] = Lineweaver-Burke transformation
[4] = unit defined at pH7.6 and 20° C.

| Km [2, 3] | Vmax, using Gly-Pro-pNA as substrate [2, 4] | Km [1, 3] | SMILES | IC50 ([1]; substrate Gly-Pro-pNA) | Vmax, using Gly-Pro-pNA as substrate [1, 4] |
| --- | --- | --- | --- | --- | --- |
|  |  |  | CC[C@H](C)[C@H](N)C(=O)N1CCC[C@H]1C(=O)N[C@H](C(=O)O)[C@@H](C)CC [Diprotin A] | 250 µM |  |
| 280 µM | 1.52 U/nmol rsCD26 | 280 µM | NCC(=O)N1CCC[C@H]1C(=O)Nc1ccc([N+](=O)[O-])cc1 [Gly-Pro-pNA, Gly-Pro-p-nitroanilide] (H-Gly-Pro-pNA) |  | 0.65 U/nmol serum DPPIV |
